Numbered stars: 1 amine (or outer) side, 2 acyl side, 3 side chain; on linkers, the order of the positions; unused ones are H or OH. Bridge positions count the residues as written; N and C are the ends. Square brackets hold non-standard residues; d marks the D form. Peptide text beside a SMILES is read from it. I, II: the chains in the order shown. Bip = N[C@@H](Cc1ccc(-c2ccccc2)cc1)C(=O)O; 2Nal = N[C@@H](Cc1ccc2ccccc2c1)C(=O)O; Diglycolyl = O=C(COCC(=O)[*:2])[*:1]; NMeR = CN[C@@H](CCCNC(=N)N)C(=O)O; Tic = O=C(O)[C@@H]1Cc2ccccc2CN1; NMeK = CN[C@@H](CCCCN)C(=O)O; Pen = CC(C)(S)[C@H](N)C(=O)O
Biological target: α4β7 (Homo sapiens, UniProt P13612+P26010)
Assay: α4β7-MAdCAM Cell Adhesion Assay (RPMI 8866 human cells)
Format: cell-based
Set-up: host or cells: RPMI 8866 human B lymphoblastoid cells
Details: Table 3-B, Potency (α4β7); range classes; read-out: α4β7 cell (Hu) IC50
Procedure, shortened: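 Washed RPMI 8866 cells (200,000/well) in DMEM with 0.1% BSA, 10 mM HEPES pH 7, 1 mM MnCl2 adhered to rh MAdCAM-1/Fc-coated wells with serially diluted peptides, 30-45 min at 37 °C. After three washes, bound cells quantified by MTT, A570, cell-free background subtracted for dose response.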

Chain of α4β7 (P13612 34-1032): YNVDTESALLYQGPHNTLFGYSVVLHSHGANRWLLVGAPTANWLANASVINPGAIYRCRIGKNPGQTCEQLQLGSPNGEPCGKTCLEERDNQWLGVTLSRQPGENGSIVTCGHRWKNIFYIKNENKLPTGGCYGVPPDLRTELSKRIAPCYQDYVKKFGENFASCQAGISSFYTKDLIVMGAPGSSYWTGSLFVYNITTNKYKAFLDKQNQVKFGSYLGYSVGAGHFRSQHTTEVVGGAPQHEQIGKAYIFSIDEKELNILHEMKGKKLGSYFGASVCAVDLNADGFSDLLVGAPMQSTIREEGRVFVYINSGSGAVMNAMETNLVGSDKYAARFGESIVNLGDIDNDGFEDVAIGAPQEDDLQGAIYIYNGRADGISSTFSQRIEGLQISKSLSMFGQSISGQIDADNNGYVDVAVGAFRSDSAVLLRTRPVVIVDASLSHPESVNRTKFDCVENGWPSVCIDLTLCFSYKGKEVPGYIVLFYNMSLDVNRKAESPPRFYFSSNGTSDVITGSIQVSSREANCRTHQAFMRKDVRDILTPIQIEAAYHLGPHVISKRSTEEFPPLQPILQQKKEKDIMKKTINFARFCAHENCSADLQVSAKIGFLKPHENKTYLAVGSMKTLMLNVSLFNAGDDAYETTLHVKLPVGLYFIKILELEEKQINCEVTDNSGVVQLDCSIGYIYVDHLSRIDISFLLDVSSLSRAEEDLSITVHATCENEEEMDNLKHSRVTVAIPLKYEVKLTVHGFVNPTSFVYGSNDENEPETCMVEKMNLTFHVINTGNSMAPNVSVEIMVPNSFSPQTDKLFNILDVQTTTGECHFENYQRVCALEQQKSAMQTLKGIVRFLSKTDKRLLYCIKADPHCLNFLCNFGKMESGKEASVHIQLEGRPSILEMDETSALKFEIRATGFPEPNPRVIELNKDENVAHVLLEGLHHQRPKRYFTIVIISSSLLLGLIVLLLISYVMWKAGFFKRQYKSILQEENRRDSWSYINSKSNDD
Chain of α4β7 (P26010 20-798): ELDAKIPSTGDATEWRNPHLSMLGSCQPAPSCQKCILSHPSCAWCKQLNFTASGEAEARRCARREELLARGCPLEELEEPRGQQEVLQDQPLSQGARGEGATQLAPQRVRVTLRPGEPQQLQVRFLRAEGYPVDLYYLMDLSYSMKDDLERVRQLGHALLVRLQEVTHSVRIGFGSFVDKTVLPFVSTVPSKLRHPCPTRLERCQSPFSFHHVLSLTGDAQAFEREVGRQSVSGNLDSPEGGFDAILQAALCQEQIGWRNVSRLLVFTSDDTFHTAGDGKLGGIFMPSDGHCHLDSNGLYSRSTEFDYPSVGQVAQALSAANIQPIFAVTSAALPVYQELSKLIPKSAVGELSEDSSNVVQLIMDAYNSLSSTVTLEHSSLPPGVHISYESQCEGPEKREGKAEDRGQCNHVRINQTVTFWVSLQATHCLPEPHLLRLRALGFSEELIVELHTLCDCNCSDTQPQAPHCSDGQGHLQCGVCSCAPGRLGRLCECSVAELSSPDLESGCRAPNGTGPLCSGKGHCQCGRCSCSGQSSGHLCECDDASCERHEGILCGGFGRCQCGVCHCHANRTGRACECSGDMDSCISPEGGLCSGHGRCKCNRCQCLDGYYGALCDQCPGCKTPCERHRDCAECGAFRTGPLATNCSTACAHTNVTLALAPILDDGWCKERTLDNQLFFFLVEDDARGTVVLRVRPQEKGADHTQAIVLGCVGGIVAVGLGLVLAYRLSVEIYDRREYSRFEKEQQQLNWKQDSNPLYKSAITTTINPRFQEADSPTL

Q: With `CC(=O)N[C@@H]1C(=O)N(C)[C@@H](CCCNC(=N)N)C(=O)N[C@@H](CO)C(=O)N[C@@H](CC(=O)O)C(=O)N[C@@H]([C@@H](C)O)C(=O)N[C@@H](CC(C)C)C(=O)N[C@H](C(=O)N[C@@H](Cc2c[nH]cn2)C(=O)N[C@@H](Cc2ccc(O)cc2)C(=O)N[C@H](CCCCNC(=O)COCC(=O)NCCCC[C@@H](NC(=O)[C@H](Cc2ccc(O)cc2)NC(=O)[C@H](Cc2c[nH]cn2)NC(=O)[C@H]2NC(=O)[C@H](CC(C)C)NC(=O)[C@H]([C@@H](C)O)NC(=O)[C@H](CC(=O)O)NC(=O)[C@H](CO)NC(=O)[C@H](CCCNC(=N)N)N(C)C(=O)[C@@H](NC(C)=O)C(C)(C)SSC2(C)C)C(N)=O)C(N)=O)C(C)(C)SSC1(C)C` [compound 26] (I: Ac-[Pen][NMeR]SDTL[Pen]HY[dK]-NH2 / II: Ac-[Pen][NMeR]SDTL[Pen]HY[dK]-NH2; disulfide I:1-I:7, II:1-II:7; linker I:10-II:10 via Diglycolyl) as the molecule, how does the IC50 read?
A: 100 to 500 nM

Q: For `CC(=O)N[C@@H]1C(=O)N(C)[C@@H](CCCNC(=N)N)C(=O)N[C@@H](CO)C(=O)N[C@@H](CC(=O)O)C(=O)N[C@@H]([C@@H](C)O)C(=O)N[C@@H](CC(C)C)C(=O)N[C@H](C(=O)N[C@@H](Cc2c[nH]c3ccccc23)C(=O)N2CCC[C@H]2C(=O)N[C@H](CCCCNC(=O)COCC(=O)NCCCC[C@@H](NC(=O)[C@@H]2CCCN2C(=O)[C@H](Cc2c[nH]c3ccccc23)NC(=O)[C@H]2NC(=O)[C@H](CC(C)C)NC(=O)[C@H]([C@@H](C)O)NC(=O)[C@H](CC(=O)O)NC(=O)[C@H](CO)NC(=O)[C@H](CCCNC(=N)N)N(C)C(=O)[C@@H](NC(C)=O)C(C)(C)SSC2(C)C)C(N)=O)C(N)=O)C(C)(C)SSC1(C)C` [compound 94] (I: Ac-[Pen][NMeR]SDTL[Pen]WP[dK]-NH2 / II: Ac-[Pen][NMeR]SDTL[Pen]WP[dK]-NH2; disulfide I:1-I:7, II:1-II:7; linker I:10-II:10 via Diglycolyl), which IC50 is on record?
A: 100 to 500 nM

Q: With `CC(=O)N[C@@H]1C(=O)N(C)[C@@H](CCCNC(=N)N)C(=O)N[C@@H](CO)C(=O)N[C@@H](CC(=O)O)C(=O)N[C@@H]([C@@H](C)O)C(=O)N[C@@H](CC(C)C)C(=O)N[C@H](C(=O)N[C@@H](Cc2c[nH]c3ccccc23)C(=O)N[C@H](Cc2ccc(O)cc2)C(=O)N[C@H](CCCCNC(=O)COCC(=O)NCCCC[C@@H](NC(=O)[C@@H](Cc2ccc(O)cc2)NC(=O)[C@H](Cc2c[nH]c3ccccc23)NC(=O)[C@H]2NC(=O)[C@H](CC(C)C)NC(=O)[C@H]([C@@H](C)O)NC(=O)[C@H](CC(=O)O)NC(=O)[C@H](CO)NC(=O)[C@H](CCCNC(=N)N)N(C)C(=O)[C@@H](NC(C)=O)C(C)(C)SSC2(C)C)C(N)=O)C(N)=O)C(C)(C)SSC1(C)C` [compound 92] (I: Ac-[Pen][NMeR]SDTL[Pen]W[dY][dK]-NH2 / II: Ac-[Pen][NMeR]SDTL[Pen]W[dY][dK]-NH2; disulfide I:1-I:7, II:1-II:7; linker I:10-II:10 via Diglycolyl) as the molecule, how does the IC50 read?
A: 50 to 100 nM

Q: With `CC(=O)N[C@@H]1C(=O)N(C)[C@@H](CCCNC(=N)N)C(=O)N[C@@H](CO)C(=O)N[C@@H](CC(=O)O)C(=O)N[C@@H]([C@@H](C)O)C(=O)N[C@@H](CCC(N)=O)C(=O)N[C@H](C(=O)N[C@@H](Cc2ccc3ccccc3c2)C(=O)N[C@H](CCC(=O)O)C(N)=O)C(C)(C)SSC1(C)C` [compound 163] (Ac-[Pen][NMeR]SDTQ[Pen][2Nal][dE]-NH2; disulfide 1-7) as the molecule, how does the IC50 read?
A: 1000 to 10000 nM

Q: With `CC(=O)N[C@@H]1C(=O)N(C)[C@@H](CCCNC(=N)N)C(=O)N[C@@H](CO)C(=O)N[C@@H](CC(=O)O)C(=O)N[C@@H]([C@@H](C)O)C(=O)N[C@@H](CC(C)C)C(=O)N[C@H](C(=O)N[C@@H](Cc2ccc3ccccc3c2)C(=O)N[C@H](Cc2ccccc2)C(=O)N[C@H](CCCCNC(=O)COCC(=O)NCCCC[C@@H](NC(=O)[C@@H](Cc2ccccc2)NC(=O)[C@H](Cc2ccc3ccccc3c2)NC(=O)[C@H]2NC(=O)[C@H](CC(C)C)NC(=O)[C@H]([C@@H](C)O)NC(=O)[C@H](CC(=O)O)NC(=O)[C@H](CO)NC(=O)[C@H](CCCNC(=N)N)N(C)C(=O)[C@@H](NC(C)=O)C(C)(C)SSC2(C)C)C(N)=O)C(N)=O)C(C)(C)SSC1(C)C` [compound 117] (I: Ac-[Pen][NMeR]SDTL[Pen][2Nal][dF][dK]-NH2 / II: Ac-[Pen][NMeR]SDTL[Pen][2Nal][dF][dK]-NH2; disulfide I:1-I:7, II:1-II:7; linker I:10-II:10 via Diglycolyl) as the molecule, how does the IC50 read?
A: 100 to 500 nM

Q: For `COc1ccc(C[C@H](NC(=O)[C@H]2NC(=O)[C@H](CC(C)C)NC(=O)[C@H]([C@@H](C)O)NC(=O)[C@H](CC(=O)O)NC(=O)[C@H](CO)NC(=O)[C@H](CCCNC(=N)N)N(C)C(=O)[C@@H](NC(C)=O)C(C)(C)SSC2(C)C)C(=O)N[C@H](CCC(=O)O)C(=O)N[C@H](CCCCNC(=O)COCC(=O)NCCCC[C@@H](NC(=O)[C@@H](CCC(=O)O)NC(=O)[C@H](Cc2ccc(OC)cc2)NC(=O)[C@H]2NC(=O)[C@H](CC(C)C)NC(=O)[C@H]([C@@H](C)O)NC(=O)[C@H](CC(=O)O)NC(=O)[C@H](CO)NC(=O)[C@H](CCCNC(=N)N)N(C)C(=O)[C@@H](NC(C)=O)C(C)(C)SSC2(C)C)C(N)=O)C(N)=O)cc1` [compound 103] (I: Ac-[Pen][NMeR]SDTL[Pen]Y(Me)[dE][dK]-NH2 / II: Ac-[Pen][NMeR]SDTL[Pen]Y(Me)[dE][dK]-NH2; disulfide I:1-I:7, II:1-II:7; linker I:10-II:10 via Diglycolyl), which IC50 is on record?
A: 25 to 50 nM

Q: `CC[C@H](C)[C@@H]1NC(=O)[C@H](CC(=O)O)NC(=O)[C@H](CO)NC(=O)[C@H](CCCNC(=N)N)N(C)C(=O)[C@@H](NC(C)=O)C(C)(C)SSC(C)(C)[C@@H](C(=O)N[C@@H](Cc2ccc3ccccc3c2)C(=O)N[C@H](CCC(=O)O)C(N)=O)NC(=O)[C@H](CC(C)C)NC1=O` [compound 160] (Ac-[Pen][NMeR]SDIL[Pen][2Nal][dE]-NH2; disulfide 1-7) was tested. Which IC50 did it give?
A: 1000 to 10000 nM

Q: Which IC50 does the source give for `CC(=O)N[C@@H]1C(=O)N(C)[C@@H](CCCNC(=N)N)C(=O)N[C@@H](CO)C(=O)N[C@@H](CC(=O)O)C(=O)N[C@@H](CC(=O)O)C(=O)N[C@@H](CC(C)C)C(=O)N[C@H](C(=O)N[C@@H](Cc2ccc(C(C)(C)C)cc2)C(=O)N[C@@H](CCC(=O)O)CC(=O)N[C@H](CCCCNC(=O)CN(CC(=O)NCCCC[C@@H](NC(=O)C[C@H](CCC(=O)O)NC(=O)[C@H](Cc2ccc(C(C)(C)C)cc2)NC(=O)[C@H]2NC(=O)[C@H](CC(C)C)NC(=O)[C@H](CC(=O)O)NC(=O)[C@H](CC(=O)O)NC(=O)[C@H](CO)NC(=O)[C@H](CCCNC(=N)N)N(C)C(=O)[C@@H](NC(C)=O)C(C)(C)SSC2(C)C)C(N)=O)C(=O)CCN)C(N)=O)C(C)(C)SSC1(C)C` [compound 191] here?
A: 10000 to 100000 nM

Q: Which IC50 does the source give for `CC(=O)N[C@@H]1C(=O)N(C)[C@@H](CCCNC(=N)N)C(=O)N[C@@H](CO)C(=O)N[C@@H](CC(=O)O)C(=O)N[C@@H]([C@@H](C)O)C(=O)N[C@@H](CC(C)C)C(=O)N[C@H](C(=O)N[C@@H](Cc2ccc(-c3ccccc3)cc2)C(=O)N[C@@H](CCC(=O)O)C(=O)N(C)[C@@H](CCCCNC(=O)COCC(=O)NCCCC[C@@H](C(N)=O)N(C)C(=O)[C@H](CCC(=O)O)NC(=O)[C@H](Cc2ccc(-c3ccccc3)cc2)NC(=O)[C@H]2NC(=O)[C@H](CC(C)C)NC(=O)[C@H]([C@@H](C)O)NC(=O)[C@H](CC(=O)O)NC(=O)[C@H](CO)NC(=O)[C@H](CCCNC(=N)N)N(C)C(=O)[C@@H](NC(C)=O)C(C)(C)SSC2(C)C)C(N)=O)C(C)(C)SSC1(C)C` [compound 136] (I: Ac-[Pen][NMeR]SDTL[Pen][Bip]E[NMeK]-NH2 / II: Ac-[Pen][NMeR]SDTL[Pen][Bip]E[NMeK]-NH2; disulfide I:1-I:7, II:1-II:7; linker I:10-II:10 via Diglycolyl) here?
A: < 10 nM

Q: For `CC(=O)N[C@@H]1C(=O)N(C)[C@@H](CCCNC(=N)N)C(=O)N[C@@H](CO)C(=O)N[C@@H](CC(=O)O)C(=O)N[C@@H]([C@@H](C)O)C(=O)N[C@@H](CC(C)C)C(=O)N[C@H](C(=O)N[C@@H](Cc2c[nH]c3ccccc23)C(=O)N[C@@H](CC(N)=O)C(=O)N[C@H](CCCCNC(=O)COCC(=O)NCCCC[C@@H](NC(=O)[C@H](CC(N)=O)NC(=O)[C@H](Cc2c[nH]c3ccccc23)NC(=O)[C@H]2NC(=O)[C@H](CC(C)C)NC(=O)[C@H]([C@@H](C)O)NC(=O)[C@H](CC(=O)O)NC(=O)[C@H](CO)NC(=O)[C@H](CCCNC(=N)N)N(C)C(=O)[C@@H](NC(C)=O)C(C)(C)SSC2(C)C)C(N)=O)C(N)=O)C(C)(C)SSC1(C)C` [compound 83] (I: Ac-[Pen][NMeR]SDTL[Pen]WN[dK]-NH2 / II: Ac-[Pen][NMeR]SDTL[Pen]WN[dK]-NH2; disulfide I:1-I:7, II:1-II:7; linker I:10-II:10 via Diglycolyl), which IC50 is on record?
A: 50 to 100 nM

Q: With `CC(=O)N[C@@H]1C(=O)N(C)[C@@H](CCCNC(=N)N)C(=O)N[C@@H](CO)C(=O)N[C@@H](CC(=O)O)C(=O)N[C@@H]([C@@H](C)O)C(=O)N[C@@H](CC(C)C)C(=O)N[C@H](C(=O)N[C@@H](Cc2ccc3ccccc3c2)C(=O)N2Cc3ccccc3C[C@H]2C(=O)N[C@H](CCCCNC(=O)COCC(=O)NCCCC[C@@H](NC(=O)[C@@H]2Cc3ccccc3CN2C(=O)[C@H](Cc2ccc3ccccc3c2)NC(=O)[C@H]2NC(=O)[C@H](CC(C)C)NC(=O)[C@H]([C@@H](C)O)NC(=O)[C@H](CC(=O)O)NC(=O)[C@H](CO)NC(=O)[C@H](CCCNC(=N)N)N(C)C(=O)[C@@H](NC(C)=O)C(C)(C)SSC2(C)C)C(N)=O)C(N)=O)C(C)(C)SSC1(C)C` [compound 121] (I: Ac-[Pen][NMeR]SDTL[Pen][2Nal][Tic][dK]-NH2 / II: Ac-[Pen][NMeR]SDTL[Pen][2Nal][Tic][dK]-NH2; disulfide I:1-I:7, II:1-II:7; linker I:10-II:10 via Diglycolyl) as the molecule, how does the IC50 read?
A: 100 to 500 nM
